Assay results taken from patent US10023558B2, “Compounds” (CHIESI FARMACEUTICI S.P.A., priority 2016, dated 2018).

Each molecule was assayed against T1, human neutrophil elastase (HNE) (Homo sapiens, UniProt P08246) (assay: HNE Enzyme Assay (fluorogenic peptide substrate MeOSuc-Ala-Ala-Pro-Val-AMC)). Details: human leukocyte elastase 0.00072 U/mL, substrate 100 μM, 25° C., 30 minutes, at least two separate experiments; read-out: HNE inhibition (IC50 values).
T1 construct: purchased Sigma E8140
T1 sequence (P08246 30-247 limits assumed): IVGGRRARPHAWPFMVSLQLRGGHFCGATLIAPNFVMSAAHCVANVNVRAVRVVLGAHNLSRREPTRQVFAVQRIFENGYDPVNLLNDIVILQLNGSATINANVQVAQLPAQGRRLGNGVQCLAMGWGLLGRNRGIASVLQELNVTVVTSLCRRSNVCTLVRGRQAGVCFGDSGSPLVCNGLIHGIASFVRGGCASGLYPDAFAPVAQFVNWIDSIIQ
Assay type: biochemical
Procedure: Compounds of this invention were tested for potency in a human neutrophil elastase (HNE) enzyme activity assay.
Assays were performed in 96-well plates in a total assay volume of 100 μL. The final concentration of elastase enzyme (human leukocyte elastase, Sigma E8140) was 0.00072 U/mL. The peptide substrate (MeOSuc-Ala-Ala-Pro-Val-AMC, Calbiochem #324740) was used at a final concentration of 100 μM. The final concentration of DMSO was 1% in the assay buffer (0.05M Tris.HCl, 0.1M NaCl, 0.1M CaCl2, 0.0005% Brij-35, pH 7.5). The enzymatic reaction was started by addition of the enzyme and incubated at 25° C. for 30 minutes. After incubation, the reaction was stopped by addition of soybean trypsin inhibitor (Sigma T9003) at a final concentration of 50 μg/well. Fluorescence was measured using a Molecular Devices fluorescence plate reader using 380 nm excitation and 460 nm emission wavelengths.
A concentration response to each compound was performed and the effect of compound in each experiment was expressed as a percentage inhibition of the control enzyme fluorescence. Dose response curves were plotted and compound potency (IC50) was determined. Compounds were tested in at least two separate experiments.

IC50, < 1 nM:
Cc1c(-c2ccnn2-c2ccc(C#N)cc2)n(C(=O)N[C@H]2CC[C@H](CNC(=O)CN(C)C)CC2)c(=O)n1-c1cccc(C(F)(F)F)c1 [Example 27, 5-[2-(4-Cyano-phenyl)-2H-pyrazol-3-yl]-4-methyl-2-oxo-3-(3-trifluoromethyl-phenyl)-2,3-dihydro-imidazole-1-carboxylic acid {trans-4-[(2-dimethylamino-acetylamino)-methyl]-cyclohexyl}-amide]
Cc1c(-c2ccnn2-c2ccc(C#N)cc2)n(C(=O)N[C@H]2CC[C@H](C[N+](C)(C)Cc3ccccc3)CC2)c(=O)n1-c1cccc(C(F)(F)F)c1 [Example 30, Benzyl-(trans-4-{[5-[2-(4-cyano-phenyl)-2H-pyrazol-3-yl]-4-methyl-2-oxo-3-(3-trifluoromethyl-phenyl)-2,3-dihydro-imidazole-1-carbonyl]-amino}-cyclohexylmethyl)-dimethyl-ammonium bromide]
Cc1c(-c2ccnn2-c2ccc(C#N)cc2)n(C(=O)N[C@@H](C)C(=O)N(C)CC2CC[N+](C)(C)CC2)c(=O)n1-c1cccc(C(F)(F)F)c1 [Example 62, 4-{[((S)-2-{[5-[2-(4-Cyano-phenyl)-2H-pyrazol-3-yl]-4-methyl-2-oxo-3-(3-trifluoromethyl-phenyl)-2,3-dihydro-imidazole-1-carbonyl]-amino}-propionyl)-methyl-amino]-methyl}-1,1-dimethyl-piperidinium benzene sulfonate]
Cc1c(-c2ccnn2-c2ccc(C#N)cc2)n(C(=O)NC(C)(C)c2ncc(CN(C)C)o2)c(=O)n1-c1cccc(C(F)(F)F)c1 [Example 24, 5-[2-(4-Cyano-phenyl)-2H-pyrazol-3-yl]-4-methyl-2-oxo-3-(3-trifluoromethyl-phenyl)-2,3-dihydro-imidazole-1-carboxylic acid [1-(5-dimethylaminomethyl-oxazol-2-yl)-1-methyl-ethyl]-amide]
Cc1c(-c2ccnn2-c2ccc(C#N)cc2)n(C(=O)N[C@H]2CC[C@H](NC(=O)C[N+](C)(C)C)CC2)c(=O)n1-c1cccc(C(F)(F)F)c1 [Example 87, [(Trans-4-{[5-[2-(4-cyano-phenyl)-2H-pyrazol-3-yl]-4-methyl-2-oxo-3-(3-trifluoromethyl-phenyl)-2,3-dihydro-imidazole-1-carbonyl]-amino}-cyclohexylcarbamoyl)-methyl]-trimethyl-ammonium benzene sulfonate]
Cc1c(-c2ccnn2-c2ccc(C#N)cc2)n(C(=O)N[C@@H](C)C(=O)N2CCC([N+](C)(C)Cc3ccccc3)CC2)c(=O)n1-c1cccc(C(F)(F)F)c1 [Example 70, Benzyl-[1-((S)-2-{[5-[2-(4-cyano-phenyl)-2H-pyrazol-3-yl]-4-methyl-2-oxo-3-(3-trifluoromethyl-phenyl)-2,3-dihydro-imidazole-1-carbonyl]-amino}-propionyl)-piperidin-4-yl]-dimethyl-ammonium bromide]
CC[N+](C)(C)[C@H]1CC[C@H](NC(=O)n2c(-c3ccnn3-c3ccc(C#N)cc3)c(C)n(-c3cccc(C(F)(F)F)c3)c2=O)CC1 [Example 44, (Trans-4-{[5-[2-(4-cyano-phenyl)-2H-pyrazol-3-yl]-4-methyl-2-oxo-3-(3-trifluoromethyl-phenyl)-2,3-dihydro-imidazole-1-carbonyl]-amino}-cyclohexyl)-ethyl-dimethyl-ammonium benzene sulfonate]
Cc1c(-c2ccnn2-c2ccc(C#N)cc2)n(C(=O)N[C@@H](C)c2nc(C[N+](C)(C)C)no2)c(=O)n1-c1cccc(C(F)(F)F)c1 [Example 60, [5-((S)-1-{[5-[2-(4-Cyano-phenyl)-2H-pyrazol-3-yl]-4-methyl-2-oxo-3-(3-trifluoromethyl-phenyl)-2,3-dihydro-imidazole-1-carbonyl]-amino}-ethyl)-[1,2,4]oxadiazol-3-ylmethyl]-trimethyl-ammonium benzene sulfonate]
Cc1c(-c2ccnn2-c2ccc(C#N)cc2)n(C(=O)N[C@H]2CC[C@H](C(=O)NCC[N+](C)(C)C)CC2)c(=O)n1-c1cccc(C(F)(F)F)c1 [Example 77, {2-[(Trans-4-{[5-[2-(4-cyano-phenyl)-2H-pyrazol-3-yl]-4-methyl-2-oxo-3-(3-trifluoromethyl-phenyl)-2,3-dihydro-imidazole-1-carbonyl]-amino}-cyclohexanecarbonyl)-amino]-ethyl}-trimethyl-ammonium benzene sulfonate]
CC[C@H](NC(=O)n1c(-c2ccnn2-c2ccc(C#N)cc2)c(C)n(-c2cccc(C(F)(F)F)c2)c1=O)c1ncc(C[N+](C)(C)C)o1 [Example 74, [2-((S)-1-{[5-[2-(4-Cyano-phenyl)-2H-pyrazol-3-yl]-4-methyl-2-oxo-3-(3-trifluoromethyl-phenyl)-2,3-dihydro-imidazole-1-carbonyl]-amino}-propyl)-oxazol-5-ylmethyl]-trimethyl-ammonium benzene sulfonate]
Cc1c(-c2ccnn2-c2ccc(C#N)cc2)n(C(=O)NC2(C)CCN(C(=O)C[N+](C)(C)C)CC2)c(=O)n1-c1cccc(C(F)(F)F)c1 [Example 84, [2-(4-{[5-[2-(4-Cyano-phenyl)-2H-pyrazol-3-yl]-4-methyl-2-oxo-3-(3-trifluoromethyl-phenyl)-2,3-dihydro-imidazole-1-carbonyl]-amino}-4-methyl-piperidin-1-yl)-2-oxo-ethyl]-trimethyl-ammonium benzene sulfonate]
Cc1c(-c2ccnn2-c2ccc(C#N)cc2)n(C(=O)N[C@H]2C[C@@H](C[N+](C)(C)C)C2)c(=O)n1-c1cccc(C(F)(F)F)c1 [Example 67, (Cis-3-{[5-[2-(4-cyano-phenyl)-2H-pyrazol-3-yl]-4-methyl-2-oxo-3-(3-trifluoromethyl-phenyl)-2,3-dihydro-imidazole-1-carbonyl]-amino}-cyclobutylmethyl)-trimethyl-ammonium benzene sulfonate]
Cc1c(-c2ccnn2-c2ccc(C#N)cc2)n(C(=O)N[C@H]2CC[C@H](NC(=O)OC(C)(C)C)CC2)c(=O)n1-c1cccc(C(F)(F)F)c1 [Example 8, (Trans-4-{[5-[2-(4-cyano-phenyl)-2H-pyrazol-3-yl]-4-methyl-2-oxo-3-(3-trifluoromethyl-phenyl)-2,3-dihydro-imidazole-1-carbonyl]-amino}-cyclohexyl)-carbamic acid tert-butyl ester]
Cc1c(-c2ccnn2-c2ccc(C#N)cc2)n(C(=O)N[C@@H](C)C(=O)N(C)CC2CCN(C)CC2)c(=O)n1-c1cccc(C(F)(F)F)c1 [Example 18, 5-[2-(4-Cyano-phenyl)-2H-pyrazol-3-yl]-4-methyl-2-oxo-3-(3-trifluoromethyl-phenyl)-2,3-dihydro-imidazole-1-carboxylic acid {(S)-1-[methyl-(1-methyl-piperidin-4-ylmethyl)-carbamoyl]-ethyl}-amide]

IC50, 1 to 10 nM:
Cc1c(-c2ccnn2-c2ccc(C#N)cc2)n(C(=O)N[C@H](C)c2cc[n+](C)cc2)c(=O)n1-c1cccc(C(F)(F)F)c1 [Example 52, 4-((R)-1-{[5-[2-(4-Cyano-phenyl)-2H-pyrazol-3-yl]-4-methyl-2-oxo-3-(3-trifluoromethyl-phenyl)-2,3-dihydro-imidazole-1-carbonyl]-amino}-ethyl)-1-methyl-pyridinium benzene sulfonate]
